Some test systems named below: HOP-62; UACC-62; SK-OV-3; M14; A549; SK-MEL-2; SW-620; MOLT-4; SN12C; DLD-1; 786-0; CAKI-1; NCI-H460; HCT-116; MDA-N; T47D; PC-3; MDA-MB-231; SR; DU-145.
Common to all, as to experiment: DTP human tumour cell line panel, 48 h

SMILES strings stand for the structures.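 Cells were grown in 96-well plates and exposed to each compound for 48 hours at five concentrations; endpoints were interpolated linearly between bracketing concentrations, or set to the highest concentration if not reached. GI50 is the concentration that inhibits growth by half.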 Calls of active or inactive are those of the source. Cut-off read from the data, not from the text of the source: active = GI50 up to about 1.1 µM and inactive = higher. A value given as a limit tells only on which side of the number the result lay.

For `O=C(O)c1ccc([C@@H]2C(=O)N(O)[C@@H]3C=CC[C@@H]32)cc1`, the GI50 in the assay on HOP-62, in the assay with UACC-62, with SK-OV-3, in the assay on M14, in the assay on A549 and in the assay with SK-MEL-2 was > 100 µM (inactive) throughout. In addition, the GI50 in the assay on SW-620, with MOLT-4, in the assay with SN12C, in the assay with DLD-1, with 786-0 and in the assay on CAKI-1 was > 100 µM (inactive) in each case.

Consider `COc1cc(C2C(C(=O)Nc3ccc(Cl)c(Cl)c3)=C(C)NC(C)=C2C(=O)Nc2ccc(Cl)c(Cl)c2)ccc1O`, for which the GI50 (in general, the concentration that inhibits growth by half) in the assay on HOP-62 was 11 µM (inactive); in the assay with SK-OV-3, 14.8 µM (inactive); in the assay on M14, 12.6 µM (inactive); with A549 it was 12.8 µM (inactive); with SK-MEL-2, 8.17 µM (inactive); in the assay with SW-620 it was 12.3 µM (inactive). Moreover, the GI50 in the assay on MOLT-4 was 4.31 µM (inactive); in the assay on NCI-H460 it was 12.8 µM (inactive); with SN12C, 12.3 µM (inactive); in the assay with DLD-1, 10.6 µM (inactive); with 786-0, 12.7 µM (inactive); in the assay with CAKI-1, 14 µM (inactive).

`CN(C)CCn1c(=O)nc2c3c(c([N+](=O)[O-])ccc31)Nc1ccc(O)cc1-2`: the GI50 with HOP-62 was 2.47 µM (inactive); in the assay with UACC-62 it was 4.5 µM (inactive); in the assay with SK-OV-3 it was 15.3 µM (inactive); in the assay on HCT-116 it was 1.57 µM (inactive); in the assay with MDA-N, 6.7 µM (inactive); in the assay with T47D it was 2.37 µM (inactive). The GI50 with M14 is 13.4 µM (inactive); in the assay with PC-3 it was 4.25 µM (inactive); in the assay with A549, 2.53 µM (inactive); in the assay on SK-MEL-2, 15.7 µM (inactive); in the assay on SW-620, 1.73 µM (inactive); in the assay with MOLT-4, 0.0638 µM (active). Besides, the GI50 with NCI-H460 was 0.977 µM (active); in the assay on MDA-MB-231 it was 2.07 µM (inactive); with SN12C, 2.61 µM (inactive); in the assay with SR, 1.12 µM (inactive); in the assay on 786-0, 1.67 µM (inactive); in the assay on CAKI-1, 5.53 µM (inactive). For the same molecule, the GI50 in the assay with DU-145 was 4.36 µM (inactive).

Regarding `COc1cc2c(cc1OC)C(=O)N(c1ccc(OCCN3CCCC3)cc1)C2`, the GI50 with HOP-62, in the assay with UACC-62, in the assay on SK-OV-3, in the assay on HCT-116, in the assay with MDA-N and in the assay with T47D was > 100 µM (inactive) in each case. Moreover, the GI50 in the assay on M14, in the assay on PC-3, in the assay on A549, with SK-MEL-2, in the assay on SW-620 and in the assay with MOLT-4 was > 100 µM (inactive) in each case. Further, the GI50 with NCI-H460, with MDA-MB-231, with SN12C, in the assay on SR, in the assay on 786-0 and in the assay with CAKI-1 was > 100 µM (inactive) throughout. Further, the GI50 in the assay on DU-145 was > 100 µM (inactive).

For `Cn1cc(NC(=O)c2cc(NC(=O)Nc3cc(C(=O)Nc4cc(C(=O)NCCC(=N)N)n(C)c4)n(C)c3)cn2C)cc1C(=O)NCCC(=N)N`, the GI50 in the assay on HOP-62 was 39.8 µM (inactive); with UACC-62 it was 16.9 µM (inactive); in the assay with SK-OV-3 it was > 100 µM (inactive); with HCT-116 it was 37.2 µM (inactive); in the assay on M14, 20.4 µM (inactive); in the assay with A549 it was 29.4 µM (inactive). The GI50 was > 100 µM (inactive) with SW-620; > 100 µM (inactive) with MOLT-4; 17.3 µM (inactive) with NCI-H460; 86.7 µM (inactive) with SN12C; > 100 µM (inactive) in the assay with DLD-1; 44.2 µM (inactive) in the assay on SR. Moreover, the GI50 is 20.7 µM (inactive) with 786-0 and 30.5 µM (inactive) in the assay on CAKI-1.

Take `CC(C)(C)OC(=O)N[C@H]1CC(=O)c2ccccc2N(CC(=O)O)C1=O`: the GI50 in the assay with HOP-62 is > 100 µM (inactive); in the assay with UACC-62, > 100 µM (inactive); in the assay on SK-OV-3, > 100 µM (inactive); in the assay on HCT-116, 26.5 µM (inactive); with M14, > 100 µM (inactive); in the assay on A549, > 100 µM (inactive). Also, the GI50 in the assay on SK-MEL-2, in the assay on SW-620, in the assay with MOLT-4, in the assay with NCI-H460, in the assay with SN12C and in the assay on DLD-1 was > 100 µM (inactive) each time. Besides, the GI50 in the assay with 786-0 and in the assay with CAKI-1 was > 100 µM (inactive) in each case.

Regarding `COC(=O)/C(C#N)=C1\NN=NN1c1ccc(OC)cc1`, the GI50 in the assay with UACC-62, in the assay with SK-OV-3, with HCT-116, in the assay with M14, with A549 and in the assay on SW-620 was > 100 µM (inactive) each time. For the same molecule, the GI50 with MOLT-4, in the assay on NCI-H460, in the assay on SN12C, in the assay with DLD-1, in the assay with 786-0 and with CAKI-1 was > 100 µM (inactive) in each case.

In the case of `CCc1cccc(C(C)C)c1NC(=O)C(=O)C1C(=O)NC(=O)NC1=O`, the GI50 with HOP-62, in the assay on UACC-62, in the assay with SK-OV-3, in the assay with HCT-116, with M14 and in the assay with A549 was > 100 µM (inactive) throughout. The GI50 in the assay on SW-620, in the assay on NCI-H460, with SN12C, in the assay with DLD-1, in the assay on SR and in the assay with 786-0 was > 100 µM (inactive) in each case. Moreover, in the assay on CAKI-1, the GI50 is > 100 µM (inactive).

Consider `CC1CC(=O)C(C(O)CC2CC(=O)N(c3ccccc3)C(=O)C2)C(C)C1` (stereo not drawn), for which the GI50 with HOP-62, in the assay with UACC-62, with SK-OV-3, with HCT-116, in the assay with M14 and in the assay on A549 was > 100 µM (inactive) each time. The GI50 in the assay on SW-620, with MOLT-4, in the assay on NCI-H460, in the assay with SN12C, in the assay on DLD-1 and in the assay with SR was > 100 µM (inactive) in each case. Moreover, the GI50 in the assay on 786-0 and with CAKI-1 was > 100 µM (inactive) each time.

In the case of `CCCCCCCCOCC(CO)OCCCCCCCC` (stereo not drawn), the GI50 is 21.6 µM (inactive) with HOP-62; 20.1 µM (inactive) in the assay with UACC-62; > 100 µM (inactive) in the assay with SK-OV-3; 19.4 µM (inactive) in the assay with HCT-116; 26.1 µM (inactive) in the assay on M14; 18.9 µM (inactive) in the assay with A549. Also, the GI50 with SW-620 is 19.8 µM (inactive); in the assay with MOLT-4, 19.2 µM (inactive); with NCI-H460 it was 15.8 µM (inactive); in the assay on SN12C, 17.4 µM (inactive); in the assay with DLD-1, 18 µM (inactive); in the assay on SR, > 10 µM (inactive). For the same molecule, the GI50 in the assay with 786-0 is 19.6 µM (inactive); with CAKI-1 it was 30.5 µM (inactive).

Turning to `COC(=O)C(Cc1cc(OC)c(OC)c(OC)c1)c1ccc(OC)cc1` (stereo not drawn), the GI50 in the assay on HOP-62, with UACC-62, with HCT-116, in the assay with M14, with A549 and in the assay on SW-620 was > 100 µM (inactive) in each case. Further, the GI50 was 62.7 µM (inactive) in the assay on MOLT-4; > 100 µM (inactive) in the assay with NCI-H460; > 100 µM (inactive) in the assay with SN12C; > 100 µM (inactive) with DLD-1; > 100 µM (inactive) in the assay on 786-0; > 100 µM (inactive) with CAKI-1.

Regarding `O=C(O)CCC(=O)C(=O)O` [ALPHA-KETOGLUTARIC ACID], the GI50 in the assay with HOP-62, in the assay with UACC-62, in the assay with SK-OV-3, in the assay on HCT-116, in the assay on MDA-N and in the assay with T47D was > 100 µM (inactive) throughout. In addition, the GI50 with M14, in the assay with PC-3, in the assay with A549, with SK-MEL-2, with SW-620 and in the assay with MOLT-4 was > 100 µM (inactive) in each case. The GI50 in the assay with NCI-H460, in the assay with MDA-MB-231, in the assay with SN12C, in the assay with SR, in the assay on 786-0 and in the assay with CAKI-1 was > 100 µM (inactive) throughout. In addition, the GI50 with DU-145 is > 100 µM (inactive).

In the case of `CC[C@]12CCCN3CCc4c(n(c5ccccc45)C(=O)C1)[C@@H]32` [VINBURNINE], the GI50 in the assay on HOP-62 is 4.76 µM (inactive); in the assay with UACC-62 it was 5.82 µM (inactive); in the assay with SK-OV-3, 10.8 µM (inactive); in the assay on HCT-116, 3.86 µM (inactive); in the assay on MDA-N it was 1.53 µM (inactive); in the assay on T47D, 11.5 µM (inactive). For the same molecule, the GI50 with M14 was 3.97 µM (inactive); with PC-3 it was 18.2 µM (inactive); in the assay with A549, 7.5 µM (inactive); in the assay with SK-MEL-2, 4.92 µM (inactive); in the assay with SW-620 it was 3.94 µM (inactive); in the assay with MOLT-4, 12.2 µM (inactive). The GI50 was 3.72 µM (inactive) with NCI-H460; 9.35 µM (inactive) with MDA-MB-231; 12.9 µM (inactive) in the assay with SN12C; 1.31 µM (inactive) in the assay with SR; 10.1 µM (inactive) in the assay on 786-0; > 100 µM (inactive) in the assay with CAKI-1. Also, the GI50 in the assay with DU-145 is 19.2 µM (inactive).

Source of the values: ChEMBL document CHEMBL1201862, “PubChem BioAssay data set” (2004).
